Measured values taken from patent EP0256258A2, “Salts of methoxyphenyl-dimethylaminomethyl-cyclohexanol, medicaments containing these and process for their preparation” (Grünenthal GmbH, priority 1986, dated 1988).
≈ marks a conversion by molar mass, not a printed value. Where a name gives a salt, the structure may show the parent alone.

Experiments:
[1] = Dissolution rate of finely powdered substance under USP XXI conditions (apparatus 2) in artificial intestinal juice; conditions: pH 7
physchem = conditions: water

Compound	gelöst / in Lösung gegangen nach 2 Minuten [1] [%]	solubility (physchem) [mg/mL]	solubility (Solubility in water) [mg/mL]
COc1cccc([C@@]2(O)CCCC[C@@H]2CN(C)C)c1 (racemic) [I-Hydrochlorid, 1e-(m-Methoxyphenyl)-2e-dimethylaminomethyl-cyclohexan-1-(a)-ol]	> 97	298	–
O=C(O)Cc1ccccc1Nc1c(Cl)cccc1Cl [II-Natriumsalz, 2-(2ʹ,6ʹ-Dichloranilino)-phenylessigsäure]	–	–	~30 (≈ 101 mM)
